Source: ChEMBL document CHEMBL1148995, “Antitumor agents from bohemic acid complex, VI. Schaunardimycin” (J Nat Prod, 1984)

Legend:
Mus musculus [1] = test: Toxicity in mouse L1210 cells implanted CDF1 mouse assessed as average weight gain at 0.2 mg/kg, ip qd for 1 to 5 days; type: organism-based; set-up: dose 0.2 mg/kg, route intraperitoneal; details: in vivo
L1210 [2] = test: Antitumor activity against mouse L1210 cells implanted in CDF1 mouse assessed as median survival time at 0.8 mg/kg, ip qd for 1 to 5 days; type: functional; details: route intraperitoneal
L1210 [3] = test: Antitumor activity against mouse L1210 cells implanted in CDF1 mouse at 0.8 mg/kg, ip single dose on day 1 relative to control; type: functional; details: route intraperitoneal
L1210 [4] = test: Antitumor activity against mouse L1210 cells implanted in CDF1 mouse assessed as median survival time at 0.2 mg/kg, ip single dose on day 1; type: functional; details: route intraperitoneal
L1210 [5] = test: Antitumor activity against mouse L1210 cells implanted in CDF1 mouse assessed as median survival time at 3.2 mg/kg, ip qd for 1 to 5 days; type: functional; details: route intraperitoneal
L1210 [6] = test: Antitumor activity against mouse L1210 cells implanted in CDF1 mouse at 6.4 mg/kg, ip qd for 1 to 5 days relative to control; type: functional; details: route intraperitoneal
Mus musculus [7] = test: Toxicity in mouse L1210 cells implanted CDF1 mouse assessed as survivors on day 5 at 3.2 mg/kg, ip qd for 1 to 5 days; type: organism-based; set-up: dose 3.2 mg/kg, route intraperitoneal; details: in vivo
L1210 [8] = test: Antitumor activity against mouse L1210 cells implanted in CDF1 mouse at 0.4 mg/kg, ip single dose on day 1 relative to control; type: functional; details: route intraperitoneal
Mus musculus [9] = test: Toxicity in mouse L1210 cells implanted CDF1 mouse assessed as survivors on day 5 at 0.8 mg/kg, ip qd for 1 to 5 days; type: organism-based; set-up: dose 0.8 mg/kg, route intraperitoneal; details: in vivo
Mus musculus [10] = test: Toxicity in mouse L1210 cells implanted CDF1 mouse assessed as average weight gain at 0.2 mg/kg, ip single dose on day 1; type: organism-based; set-up: dose 0.2 mg/kg, route intraperitoneal; details: in vivo
Mus musculus [11] = test: Toxicity in mouse L1210 cells implanted CDF1 mouse assessed as average weight gain at 3.2 mg/kg, ip single dose on day 1; type: organism-based; set-up: dose 3.2 mg/kg, route intraperitoneal; details: in vivo
L1210 [12] = test: Antitumor activity against mouse L1210 cells implanted in CDF1 mouse assessed as median survival time at 12.8 mg/kg, ip single dose on day 1; type: functional; details: route intraperitoneal
Mus musculus [13] = test: Toxicity in mouse L1210 cells implanted CDF1 mouse assessed as average weight gain at 6.4 mg/kg, ip single dose on day 1; type: organism-based; set-up: dose 6.4 mg/kg, route intraperitoneal; details: in vivo
Mus musculus [14] = test: Toxicity in mouse L1210 cells implanted CDF1 mouse assessed as survivors on day 5 at 0.8 mg/kg, ip single dose on day 1; type: organism-based; set-up: dose 0.8 mg/kg, route intraperitoneal; details: in vivo
L1210 [15] = test: Antitumor activity against mouse L1210 cells implanted in CDF1 mouse at 25.6 mg/kg, ip single dose on day 1 relative to control; type: functional; details: route intraperitoneal
L1210 [16] = test: Antitumor activity against mouse L1210 cells implanted in CDF1 mouse at 3.2 mg/kg, ip qd for 1 to 5 days relative to control; type: functional; details: route intraperitoneal
Mus musculus [17] = test: Toxicity in mouse L1210 cells implanted CDF1 mouse assessed as average weight gain at 0.8 mg/kg, ip single dose on day 1; type: organism-based; set-up: dose 0.8 mg/kg, route intraperitoneal; details: in vivo
Mus musculus [18] = test: Toxicity in mouse L1210 cells implanted CDF1 mouse assessed as survivors on day 5 at 0.4 mg/kg, ip single dose on day 1; type: organism-based; set-up: dose 0.4 mg/kg, route intraperitoneal; details: in vivo
Mus musculus [19] = test: Toxicity in mouse L1210 cells implanted CDF1 mouse assessed as average weight gain at 3.2 mg/kg, ip qd for 1 to 5 days; type: organism-based; set-up: dose 3.2 mg/kg, route intraperitoneal; details: in vivo
L1210 [20] = test: Antitumor activity against mouse L1210 cells implanted in CDF1 mouse at 12.8 mg/kg, ip single dose on day 1 relative to control; type: functional; details: route intraperitoneal
Mus musculus [21] = test: Toxicity in mouse L1210 cells implanted CDF1 mouse assessed as average weight gain at 12.8 mg/kg, ip single dose on day 1; type: organism-based; set-up: dose 12.8 mg/kg, route intraperitoneal; details: in vivo
Mus musculus [22] = test: Toxicity in mouse L1210 cells implanted CDF1 mouse assessed as survivors on day 5 at 0.4 mg/kg, ip qd for 1 to 5 days; type: organism-based; set-up: dose 0.4 mg/kg, route intraperitoneal; details: in vivo
L1210 [23] = test: Antitumor activity against mouse L1210 cells implanted in CDF1 mouse assessed as median survival time at 6.4 mg/kg, ip single dose on day 1; type: functional; details: route intraperitoneal
L1210 [24] = test: Antitumor activity against mouse L1210 cells implanted in CDF1 mouse assessed as median survival time at 0.2 mg/kg, ip qd for 1 to 5 days; type: functional; details: route intraperitoneal
L1210 [25] = test: Antitumor activity against mouse L1210 cells implanted in CDF1 mouse assessed as median survival time at 3.2 mg/kg, ip single dose on day 1; type: functional; details: route intraperitoneal
L1210 [26] = test: Antitumor activity against mouse L1210 cells implanted in CDF1 mouse assessed as median survival time at 1.6 mg/kg, ip qd for 1 to 5 days; type: functional; details: route intraperitoneal
Mus musculus [27] = test: Toxicity in mouse L1210 cells implanted CDF1 mouse assessed as average weight gain at 6.4 mg/kg, ip qd for 1 to 5 days; type: organism-based; set-up: dose 6.4 mg/kg, route intraperitoneal; details: in vivo
Mus musculus [28] = test: Toxicity in mouse L1210 cells implanted CDF1 mouse assessed as average weight gain at 0.8 mg/kg, ip qd for 1 to 5 days; type: organism-based; set-up: dose 0.8 mg/kg, route intraperitoneal; details: in vivo
Mus musculus [29] = test: Toxicity in mouse L1210 cells implanted CDF1 mouse assessed as survivors on day 5 at 0.2 mg/kg, ip single dose on day 1; type: organism-based; set-up: dose 0.2 mg/kg, route intraperitoneal; details: in vivo
Mus musculus [30] = test: Toxicity in mouse L1210 cells implanted CDF1 mouse assessed as survivors on day 5 at 3.2 mg/kg, ip single dose on day 1; type: organism-based; set-up: dose 3.2 mg/kg, route intraperitoneal; details: in vivo
L1210 [31] = test: Antitumor activity against mouse L1210 cells implanted in CDF1 mouse at 3.2 mg/kg, ip single dose on day 1 relative to control; type: functional; details: route intraperitoneal
Mus musculus [32] = test: Toxicity in mouse L1210 cells implanted CDF1 mouse assessed as survivors on day 5 at 0.2 mg/kg, ip qd for 1 to 5 days; type: organism-based; set-up: dose 0.2 mg/kg, route intraperitoneal; details: in vivo
L1210 [33] = test: Antitumor activity against mouse L1210 cells implanted in CDF1 mouse assessed as median survival time at 25.6 mg/kg, ip single dose on day 1; type: functional; details: route intraperitoneal
L1210 [34] = test: Antitumor activity against mouse L1210 cells implanted in CDF1 mouse assessed as median survival time at 0.4 mg/kg, ip qd for 1 to 5 days; type: functional; details: route intraperitoneal
L1210 [35] = test: Antitumor activity against mouse L1210 cells implanted in CDF1 mouse assessed as median survival time at 0.4 mg/kg, ip single dose on day 1; type: functional; details: route intraperitoneal
Mus musculus [36] = test: Toxicity in mouse L1210 cells implanted CDF1 mouse assessed as survivors on day 5 at 6.4 mg/kg, ip qd for 1 to 5 days; type: organism-based; set-up: dose 6.4 mg/kg, route intraperitoneal; details: in vivo
L1210 [37] = test: Antitumor activity against mouse L1210 cells implanted in CDF1 mouse at 0.2 mg/kg, ip qd for 1 to 5 days relative to control; type: functional; details: route intraperitoneal
Mus musculus [38] = test: Toxicity in mouse L1210 cells implanted CDF1 mouse assessed as average weight gain at 1.6 mg/kg, ip qd for 1 to 5 days; type: organism-based; set-up: dose 1.6 mg/kg, route intraperitoneal; details: in vivo
L1210 [39] = test: Antitumor activity against mouse L1210 cells implanted in CDF1 mouse at 0.4 mg/kg, ip qd for 1 to 5 days relative to control; type: functional; details: route intraperitoneal
Mus musculus [40] = test: Toxicity in mouse L1210 cells implanted CDF1 mouse assessed as survivors on day 5 at 1.6 mg/kg, ip qd for 1 to 5 days; type: organism-based; set-up: dose 1.6 mg/kg, route intraperitoneal; details: in vivo
L1210 [41] = test: Antitumor activity against mouse L1210 cells implanted in CDF1 mouse at 6.4 mg/kg, ip single dose on day 1 relative to control; type: functional; details: route intraperitoneal

CC[C@@]1(O)C[C@H](O[C@H]2C[C@H](NC)[C@H](O[C@H]3C[C@H](O)[C@H](O)[C@H](C)O3)[C@H](C)O2)c2c(cc3c(c2O)C(=O)c2c(O)ccc(O)c2C3=O)[C@H]1C(=O)OC [SCHAUNARDIMYCIN]
weight gain (Mus musculus [1]): 2.6 g | MST (L1210 [2]): 7 days | T/C (L1210 [3]): 100% | MST (L1210 [4]): 6 days | MST (L1210 [5]): 8 days | T/C (L1210 [6]): 133% | Activity (Mus musculus [7]): Active | T/C (L1210 [8]): 100% | Activity (Mus musculus [9]): Active | weight gain (Mus musculus [10]): 2.5 g | Activity (Mus musculus [11]): 3.2 g | MST (L1210 [12]): 8 days | Activity (Mus musculus [13]): 2.5 g | Activity (Mus musculus [14]): Active | T/C (L1210 [15]): 133% | T/C (L1210 [16]): 133% | weight gain (Mus musculus [17]): 2.8 g | Activity (Mus musculus [18]): Active | Activity (Mus musculus [19]): 2.8 g | T/C (L1210 [20]): 133% | Activity (Mus musculus [21]): 0.7 g | Activity (Mus musculus [22]): Active | MST (L1210 [23]): 7 days | MST (L1210 [24]): 7 days | MST (L1210 [25]): 7 days | MST (L1210 [26]): 7.5 days | Activity (Mus musculus [27]): 1.6 g | weight gain (Mus musculus [28]): 3.5 g | Activity (Mus musculus [29]): Active | Activity (Mus musculus [30]): Active | T/C (L1210 [31]): 117% | Activity (Mus musculus [32]): Active | MST (L1210 [33]): 8 days | MST (L1210 [34]): 7 days | MST (L1210 [35]): 6 days | Activity (Mus musculus [36]): Active | T/C (L1210 [37]): 117% | weight gain (Mus musculus [38]): 3 g | T/C (L1210 [39]): 117% | Activity (Mus musculus [40]): Active | T/C (L1210 [41]): 117%
